The conditions of data set [1]: especially in combination with other herbicides; Kamuro et al.; cited from earlier work.
For data set [2], the system named is E. coli TOP10 F′. Kind of data set: Growth of E. coli control cells on medium containing fosmidomycin. The following applies: TOP10 F′ transformed with parent vectors; LB or LB/IPTG with fosmidomycin 20 μg/ml. It counts as cell-based. On the procedure: Single colonies of TOP10 F′/pHKO2 (designated strain HK6), TOP10 F′/pHKO3 (designated strain HK7), and TOP10 F′/pHKO9 (designated strain HK8), are used to individually inoculate 4 ml LB/amp cultures and grown overnight at 30° C., 225 rpm. The HK6 and HK7 cultures are serially diluted 10,000 to 100,000-fold and plated on LB containing fosmidomycin (20 μg/ml).

In data set [3] the test system is Nicotiana tabacum var. ‘Xanthi NC’ leaf sections. Put plainly: Toxicity of fosmidomycin to tobacco grown on medium. The following applies: after three weeks of growth on medium.
The target in data set [4] is DXP reductoisomerase (Escherichia coli, UniProt P45568). The following applies: Kuzuyama et al., 1998; cited from earlier work.
Sequence of DXP reductoisomerase (P45568 whole entry): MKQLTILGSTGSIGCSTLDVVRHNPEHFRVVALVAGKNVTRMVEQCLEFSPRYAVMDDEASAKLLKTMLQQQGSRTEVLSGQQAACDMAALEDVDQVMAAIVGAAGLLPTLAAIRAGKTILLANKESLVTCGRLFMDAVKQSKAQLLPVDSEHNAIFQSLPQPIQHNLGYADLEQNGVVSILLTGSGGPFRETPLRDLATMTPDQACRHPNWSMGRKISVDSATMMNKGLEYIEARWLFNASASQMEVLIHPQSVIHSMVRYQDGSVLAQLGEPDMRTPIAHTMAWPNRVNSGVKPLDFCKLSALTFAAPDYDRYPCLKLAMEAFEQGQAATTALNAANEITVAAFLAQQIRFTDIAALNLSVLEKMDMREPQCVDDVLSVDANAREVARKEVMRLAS

The values below come from US7129392B2, “Materials and methods for increasing isoprenoid production in cells” (priority 2000, dated 2006).

In the case of `O=CN(O)CCCP(=O)(O)O` [fosmidomycin], the herbicidal activity result in data set [1] is given as “significant herbicidal activity”. Moreover, the “growth of E. coli control cells on medium containing fosmidomycin” value in data set [2] is “unable to grow”. Moreover, in data set [3], the “fosmidomycin concentration at which toxicity is evident in tobacco” value is reported as “at least 500 micromolar”. Further, in data set [4], the “inhibition of the enzyme DXP reductoisomerase” value is recorded as “specific inhibitor”.
